Source: patent publication US12491183B2, “Compositions and methods of using nintedanib for treating ocular diseases with abnormal neovascularization” (ADS Therapeutics LLC, priority 2016, dated 2025)
Entries after “also recorded” stand apart in the source; their conditions may differ.

Columns and labels:
[1] = tested on: suture-induced neovascularization in the rabbit cornea; experiment: Rabbit cornea suture model of neovascularization; assay type: in vivo
Method: Topical compositions comprising 0.2% or 0.05% nintedanib in 10% 2-hydroxypropyl beta cyclodextrin in phosphate buffer solution, pH 7.4 were prepared. Thirty female Zealand White rabbits were used to perform the study. Briefly, five sutures were placed in the upper cornea of the right eye of each animal on Day 1 to induce neovascularization. The animals were treated in both eyes with either drug, vehicle or saline as described in Table 1. [table] During the study, the animals were closely observed for various ocular indications as well as general physical conditions including body weight. Ocular images were taken on days 7, 10, 12, 14, 21, 28 for analysis of hyperemia. NIH ImageJ® software was used to analyze the ocular images. Each image was opened in ImageJ®, the scale was calibrated using the ruler in the photograph and the neovascularized area on the cornea near the suture was selected by the selection tool. The area in mm^2 was calculated by measurement tool in the software, recorded in excel and the image was captured and saved. […] The results were plotted as histograms of average with standard deviation for easy comparison.

[2] = tested on: corneal graft rejection (C57BL/6 cornea transplanted onto BALB/c mice); experiment: Mouse corneal graft rejection model; assay type: in vivo; conditions: nintedanib 0.2% solution TID for 8 weeks vs vehicle solution
Description: In this example, cornea of C57BL/6 mice would be transplanted onto BALB/c mice cornea as described (Sonoda et al. Invest Ophthalmol Vis Sci. 1995 February; 36(2):427-34; Invest Ophthalmol Vis Sci. 2000 March; 41(3):790-8; Yamagami et al. Invest Ophthalmol Vis Sci. 2001 May; 42(6): 1293-8). The suture would be removed on day 7 after transplant. The mice would be divided into two groups. Group 1 would be treated with the nintedanib 0.2% solution and group 2 with the vehicle solution. Treatment would start immediately after transplant, TID for 8 weeks. The corneal opacity and graft rejection will be assessed weekly for 8 weeks as described.

Structure (SMILES): COC(=O)c1ccc2c(c1)NC(=O)/C2=C(\Nc1ccc(N(C)C(=O)CN2CCN(C)CC2)cc1)c1ccccc1 [nintedanib, Methyl (3Z)-3-{[(4-{methyl[(4-methylpiperazin-1-yl)acetyl]amino}phenyl)amino] (phenyl)methylidene}-2-oxo-2,3-dihydro-1H-indole-6-carboxylate]
- efficacy of TID dosing compared with BID dosing ([1]; rabbit cornea suture model, topical ocular, TID vs BID): higher efficacy
- efficacy of 0.2% nintedanib compared with 0.05% nintedanib ([1]; rabbit cornea suture model, topical ocular, higher dose 0.2% vs 0.05%): better efficacy
- effect on suture-induced corneal neovascularization (area of cornea neovascularization) ([1]; rabbit, topical ocular 0.2% or 0.05% solution BID or TID days 8 to 15, vs vehicle, day 12 and day 14 after suture): reduced cornea neovascularization; also recorded: marked inhibitory effect; also recorded: strongly inhibited corneal neovascularization
- survival of the graft (rejection rate) [2]: significantly increased survival of the graft
